Source: US5244795A, “Processes for preparing cholesterol lowering compounds” (Merck & Co., Inc., priority 1992, dated 1993)
Values after ≈ are worked out from the molar mass of the structure shown.

Legend:
Type in all cases: cell-based
Candida guilliermondii [1] = assay: FISP disc diffusion assay; conditions: Meyerozyma guilliermondii; 250 μg/ml in CH2Cl2; read-out: diameter of the zone of inhibition of growth
Description: (§1) The FISP assay employs disc diffusion susceptibility testing methods to generate a spectrum of activity against a panel of representative yeasts, filamentous fungi and bacteria.
(§2) The yeasts employed in the assay are Saccharomyces cerevisiae, Candida albicans, Candida tropicalis, Candida rugosa, Brettanomyces bruxellensis, Torulospora hansenii, Candida guilliermondi, Candida pseudotropicalis, Torulopsis glabrata, Cryptococcus albidus, Cryptococcus laurentii and Kluyveromyces fragilis.
(§3) For carrying out the assay, seeded assay plates are prepared in the following manner according to the type of assay strain.
(§4) Inocula for yeasts and bacterial strains are prepared from overnight broth cultures then diluted into potato dextrose agar to a final concentration of either 40 percent or 70 percent transmission at 660 nm.
(§5) Assay plates for the yeasts and filamentous fungi are prepared by diluting the inoculum into appropriate molten agar medium, cooled to 45° C. to obtain a final concentration of 4 percent.
(§6) The seeded agar media thus prepared are dispensed into petri dishes for assays (11 ml per dish). […]
(§7) Following incubation, the inhibition zones are measured and recorded. […]
(§8) FISP data is reported as the diameter (in mm.) of the zone of inhibition of growth in agar diffusion assays. The zone is determined by measuring growth that differs from the background lawn. […]

Torulopsis glabrata = assay: FISP disc diffusion assay; conditions: Nakaseomyces glabratus; 250 μg/ml in CH2Cl2; read-out: diameter of the zone of inhibition of growth
Description: as §1, §2, §3, §4, §5, §6, §7, §8

Bacillus subtilis = assay: FISP disc diffusion assay; conditions: 250 μg/ml in CH2Cl2
Description: as §1
The bacteria employed in the assay are Streptomyces sp., Acholeplasma laidlawii and Bacillus subtilis.
as §3, §4
Seeded agar for Bacillus subtilis are prepared from a commercially available spore suspension which is diluted directly into molten agar (45° C.) to obtain a final concentration of 0.1 percent.
(§9) The seeded agar media thus prepared are dispensed into petri dishes for assays (11 ml per dish).
The samples to be tested for production of antifungal agent are applied to 6.2 mm filter paper discs (25 μl/disc) and air dried at 24° C. When the sample to be tested is crude broth, it may be centrifuged prior to application. […]
as §7, §8

Rhizomucor miehei = assay: FISP disc diffusion assay; design: key: F: clear zone, fuzzy edges; S: slightly hazy zone (some growth observed throughout zone); H: hazy zone (considerable growth observed throughout zone); V: very hazy zone (zone of inhibition is barely discernable); R: zone displays a ring of resistant growth; no qualifier: clear zone throughout, sharp edges; conditions: 250 μg/ml in CH2Cl2
Description: as §1
(§10) The filamentous fungi used in the assay were Penicillium sp. Aspergillus niger, Trichoderma sp., Phoma sp., Trichoderma lignorum, Fusarium oxysporum, Ustilago maydis, Ceratocystis ulmi, Alternaria soloni, Verticillium serrae, Botrytis allii, Scopulariopsis communis, Cephalosporium sp., Cercospora beticola, Rhizomucor miehei, Aspergillus flavus and Aspergillus fumigatus.
as §3
(§11) Inocula for filamentous fungi are prepared by scraping the surface of stock plates maintained on potato dextrose agar with a moistened sterile dacron swab. The spores and mycelia are then suspended in 10 milliliters of sterile potato dextrose broth and adjusted to 65 percent transmission at 660 nm.
as §5, §9
(§12) The samples to be tested for production of antifungal agent are applied to 6.2 mm filter paper discs (25 μl/disc) and air dried at 24° C. When the sample to be tested is crude broth, it may be centrifuged prior to application. The discs bearing the material to be tested are then applied employing sterile conditions to the seeded assay plates. The assay plates are then incubated at either 28° C. or 37° C. for 24 hours. In one of the assays for Bacillus subtilis, the sample is applied to a disc previously impregnated with 4M potassium chloride at 25 μl/disc and then air dried.
(§13) Following incubation, the inhibition zones are measured and recorded. The measurements are made from the extreme edge where growth differs from the background zone. The zones are noted as to appearance as fuzzy edge and clear center, hazy throughout, slightly hazy, very hazy or ringed.
(§14) FISP data is reported as the diameter (in mm.) of the zone of inhibition of growth in agar diffusion assays. The zone is determined by measuring growth that differs from the background lawn. A qualifier is also added to describe the zone quality as listed below: no qualifier: clear zone throughout, sharp edges

Trichoderma sp. = assay: FISP disc diffusion assay; design: key: F: clear zone, fuzzy edges; S: slightly hazy zone (some growth observed throughout zone); H: hazy zone (considerable growth observed throughout zone); V: very hazy zone (zone of inhibition is barely discernable); R: zone displays a ring of resistant growth; no qualifier: clear zone throughout, sharp edges; conditions: 250 μg/ml in CH2Cl2
Description: as §1, §10, §3, §11, §5, §9, §12, §13, §14

Aspergillus flavus = assay: FISP disc diffusion assay; design: key: F: clear zone, fuzzy edges; S: slightly hazy zone (some growth observed throughout zone); H: hazy zone (considerable growth observed throughout zone); V: very hazy zone (zone of inhibition is barely discernable); R: zone displays a ring of resistant growth; no qualifier: clear zone throughout, sharp edges; conditions: 250 μg/ml in CH2Cl2
Description: as §1, §10, §3, §11, §5, §9, §12, §13, §14

Trichoderma lignorum = assay: FISP disc diffusion assay; design: key: F: clear zone, fuzzy edges; S: slightly hazy zone (some growth observed throughout zone); H: hazy zone (considerable growth observed throughout zone); V: very hazy zone (zone of inhibition is barely discernable); R: zone displays a ring of resistant growth; no qualifier: clear zone throughout, sharp edges; conditions: 250 μg/ml in CH2Cl2
Description: as §1, §10, §3, §11, §5, §9, §12, §13, §14

Candida parapsilosis = assay: Microdilution broth assay; conditions: Lodderomyces parapsilosis; strain MY 1010; 35° C., 24 to 48 hours; read-out: MIC (minimum inhibitory concentration)
Description: (§15) The broad spectrum antifungal activity of the present compounds was further determined by broth dilution methods. The compounds are particularly active towards filamentous fungi and yeasts including Candida albicans and Crypt. neoformans. The sensitivity of filamentous fungi and yeasts was determined using inhibitor dilution assays in microtiter format. A standardized spore suspension for testing the filamentous fungi was prepared by inoculating sterile distilled water with spores such that 1.5-7.5×10^3 colony forming units were added per well. The microtiter wells were filled with 75 μl of yeast nitrogen base containing 1% Dextrose medium (YNB/D) containing compound. Fifty μl of inoculated YNB/D medium was then added to the wells.
(§16) The sensitivity of yeasts was determined by inoculating sterile distilled water with aliquots of a 4-hour yeast culture grown in Yeast Morphology (YM) media at 35° C. and diluting in YNB/D to yield a final concentration of 1.5-7.5×10^3 colony forming units/well. Seventy-five μl of inoculated media was added per well. To test the sensitivity of yeast, compound was solubilized in 10 percent aqueous DMSO at 2.56 mg/ml. The compound was diluted serially in YNB/D from 128 to 0.06 μg/ml. The wells were filled with 75 μl of drug containing media. […] Representative of the antifungal activity are the minimum inhibitory concentration and minimum fungicidal concentration data shown below in Table II: […]

Candida guilliermondii [2] = assay: Microdilution broth assay; conditions: Meyerozyma guilliermondii; strain MY 1019; 35° C., 24 to 48 hours; read-out: MIC (minimum inhibitory concentration)
Description: as §15, §16

Candida albicans = assay: Microdilution broth assay; conditions: 35° C., 24 to 48 hours
Description: as §15, §16

Candida tropicalis = assay: Microdilution broth assay; conditions: strain MY 1012, 35° C., 24 to 48 hours, read-out: MIC (minimum inhibitory concentration)
Description: as §15, §16

Saccharomyces cerevisiae = assay: Microdilution broth assay; conditions: strain MY 1976, 35° C., 24 to 48 hours, read-out: MIC (minimum inhibitory concentration)
Description: as §15, §16

## CC(/C=C/C=C(\C)C(O)C(C)C(=O)O[C@H]1C[C@H](C)C=C2C=C[C@@]3(C)O[C@@H](O)CC(=O)[C@]3(C)[C@H]21)=C\C=C\C(=O)O (some centres unmarked) [Compound A]
Candida guilliermondii [1]
  zone of inhibition at 250 µg/mL: 0 mm
Torulopsis glabrata
  zone of inhibition at 250 µg/mL: 0 mm
Bacillus subtilis; KCl (disc impregnated with 4M potassium chloride)
  diameter of the zone of inhibition of growth: 0 mm
Bacillus subtilis; Bacillus subtilis, read-out: diameter of the zone of inhibition of growth
  zone of inhibition at 250 µg/mL: 0 mm
Rhizomucor miehei
  zone quality qualifier: H
Trichoderma sp.
  zone quality qualifier: S
Aspergillus flavus
  zone quality qualifier: H
Trichoderma lignorum
  zone quality qualifier: F
Candida parapsilosis
  MIC: 0.25 µg/mL (≈ 0.462 µM)
Candida guilliermondii [2]
  MIC: > 128 µg/mL
Candida albicans; Candida albicans, strain MY 1055, read-out: MIC (minimum inhibitory concentration)
  MIC: ≤ 0.06 µg/mL
Candida albicans; strain MY 1028
  MIC (minimum inhibitory concentration): ≤ 0.06 µg/mL
Candida tropicalis
  MIC: ≤ 0.06 µg/mL
Saccharomyces cerevisiae
  MIC: > 128 µg/mL
